The source made the active and inactive calls. No cut-off for these calls is given here.
What was measured:
[1] = tested on: Rattus norvegicus; assay: Diuretic activity in normotensive Wistar rat assessed as urinary chloride excretion at 1 mg/kg, ip […] after 8 hrs (reference value: 103.30 +/- 10.25 mmol/L); assay type: functional
[2] = Toxicity in normotensive Wistar rat assessed as changes in plasma potassium level at 0.1 mg/kg, po administered for 7 days; assay type: organism-based; conditions: in vivo, 168 h
[3] = tested on: Rattus norvegicus; assay: Diuretic activity in normotensive Wistar rat assessed as urine conductivity at 0.1 mg/kg, po administered via gavage after 8 hrs in presence of amiloride (reference value: 19.54 +/- 0.98 mS/cm); assay type: functional
[4] = tested on: Rattus norvegicus; assay: Diuretic activity in normotensive Wistar rat assessed as urinary sodium excretion at 1 mg/kg, po administered via gavage after 8 hrs (reference value: 61.82 to 80.81 mmol/L); assay type: functional
[5] = tested on: Rattus norvegicus; assay: Diuretic activity in normotensive Wistar rat assessed as urine conductivity at 0.1 mg/kg, po administered via gavage after 8 hrs in presence of furosemide (reference value: 19.54 +/- 0.98 mS/cm); assay type: functional
[6] = Anti-urolithic activity in synthetic urine assessed as reduction in CaOx crystal formation at 0.1 mg/mL in presence of sodium oxalate after 60 mins by Neubauer counting chamber method relative to control; assay type: functional; set-up: scale not given: the % may be the effect or the level left
[7] = tested on: Rattus norvegicus; assay: Diuretic activity in normotensive Wistar rat assessed as urinary sodium excretion at 0.1 mg/kg, ip after 8 hrs (reference value: 81.56 +/- 13.10 mmol/L); assay type: functional
[8] = Toxicity in spontaneous hypertensive Wistar rat assessed as changes in plasma sodium level at 0.1 mg/kg, po administered for 7 days; assay type: organism-based; conditions: in vivo, 168 h
[9] = tested on: Rattus norvegicus; assay: Diuretic activity in normotensive Wistar rat assessed as urinary chloride excretion at 0.1 mg/kg, ip […] after 8 hrs (reference value: 103.30 +/- 10.25 mmol/L); assay type: functional
[10] = tested on: Rattus norvegicus; assay: Diuretic activity in normotensive Wistar rat assessed as urinary chloride excretion at 0.1 mg/kg, po administered via gavage after 8 hrs in presence of amiloride (reference value: 135.10 to 143.70 mmol/L); assay type: functional
[11] = tested on: Rattus norvegicus; assay: Diuretic activity in normotensive Wistar rat assessed as urinary calcium excretion at 0.01 mg/kg, po administered via gavage after 8 hrs (reference value: 5.93 to 6.87 mg/dl); assay type: functional
[12] = Toxicity in spontaneous hypertensive Wistar rat assessed as changes in plasma potassium level at 0.1 mg/kg, po administered for 7 days; assay type: organism-based; conditions: in vivo, 168 h
[13] = tested on: Rattus norvegicus; assay: Diuretic activity in normotensive Wistar rat assessed as urinary potassium excretion at 0.1 mg/kg, po administered via gavage after 8 hrs in presence of atropine (reference value: 22.39 to 24.21 mmol/L); assay type: ADME, organism-based; conditions: in vivo
[14] = tested on: Rattus norvegicus; assay: Renal protective activity in spontaneous hypertensive Wistar rat assessed as reduction in hypertension-induced glomerular size at 0.1 mg/kg, po administered via gavage for 7 days by hematoxylin and eosin staining based microscopic analysis; assay type: functional, organism-based
[15] = tested on: Rattus norvegicus; assay: Diuretic activity in normotensive Wistar rat assessed as urinary sodium excretion at 0.1 mg/kg, po administered via gavage after 8 hrs in presence of furosemide (reference value: 61.82 to 80.81 mmol/L); assay type: functional
[16] = Toxicity in spontaneous hypertensive Wistar rat assessed as changes in plasma ALT level at 0.1 mg/kg, po administered for 7 days; assay type: organism-based; conditions: in vivo, 168 h
[17] = Anti-urolithic activity in synthetic urine assessed as decrease in absorbance at 0.1 mg/mL after 60 mins relative to control; assay type: functional; set-up: scale not given: the % may be the effect or the level left
[18] = tested on: Rattus norvegicus; assay: Diuretic activity in normotensive Wistar rat assessed as decrease in urinary calcium excretion at 0.1 mg/kg, po administered via gavage for 7 days; assay type: functional, organism-based
[19] = tested on: Rattus norvegicus; assay: Diuretic activity in normotensive Wistar rat assessed as urinary chloride excretion at 0.1 mg/kg, po administered via gavage after 8 hrs in presence of L-NAME (reference value: 135.10 to 143.70 mmol/L); assay type: functional
[20] = tested on: Rattus norvegicus; assay: Diuretic activity in normotensive Wistar rat assessed as urinary sodium excretion at 0.01 mg/kg, ip after 8 hrs (reference value: 81.56 +/- 13.10 mmol/L); assay type: functional
[21] = tested on: Rattus norvegicus; assay: Diuretic activity in normotensive Wistar rat assessed as increase in urinary chloride excretion at 0.1 mg/kg, po administered via gavage for 7 days; assay type: functional, organism-based
[22] = tested on: Rattus norvegicus; assay: Diuretic activity in normotensive Wistar rat assessed as urinary chloride excretion at 0.1 mg/kg, po administered via gavage after 8 hrs (reference value: 135.10 to 143.70 mmol/L); assay type: functional
[23] = tested on: Rattus norvegicus; assay: Diuretic activity in normotensive Wistar rat assessed as urinary calcium excretion at 0.01 mg/kg, […] administered via gavage after 8 hrs (reference value: 5.28 +/- 0.09 mg/dl); assay type: functional
[24] = tested on: Rattus norvegicus; assay: Diuretic activity in normotensive Wistar rat assessed as increase in urine volume at 0.1 mg/kg, po administered via gavage for 7 days; assay type: functional, organism-based
[25] = tested on: Rattus norvegicus; assay: Diuretic activity in normotensive Wistar rat assessed as urinary calcium excretion at 0.1 mg/kg, po administered via gavage after 8 hrs in presence of amiloride (reference value: 5.93 to 6.87 mg/dl); assay type: functional
[26] = tested on: Rattus norvegicus; assay: Diuretic activity in normotensive Wistar rat assessed as urine pH at 0.1 mg/kg, ip after 8 hrs (reference value: 6.05 +/- 0.22); assay type: functional
[27] = tested on: Rattus norvegicus; assay: Diuretic activity in normotensive Wistar rat assessed as urine conductivity at 0.1 mg/kg, po administered via gavage after 8 hrs in presence of hydrochlorothiazide (reference value: 19.54 +/- 0.98 mS/cm); assay type: functional
[28] = tested on: Rattus norvegicus; assay: In vivo antioxidant activity in Wistar rat model of hypertension-induced oxidative stress assessed as reduction in nitrite level in renal tissue at 0.1 mg/kg, po administered via gavage for 7 days by Griess reagent based assay; assay type: functional, organism-based
[29] = tested on: Rattus norvegicus; assay: Diuretic activity in normotensive Wistar rat assessed as urinary chloride excretion at 0.1 mg/kg, po administered via gavage after 8 hrs in presence of atropine (reference value: 135.10 to 143.70 mmol/L); assay type: functional
[30] = tested on: Rattus norvegicus; assay: Diuretic activity in normotensive Wistar rat assessed as urinary potassium excretion at 0.1 mg/kg, po administered via gavage after 8 hrs in presence of indomethacin (reference value: 22.39 to 24.21 mmol/L); assay type: ADME, organism-based; conditions: in vivo
[31] = tested on: Rattus norvegicus; assay: Anti-urolithic activity in normotensive Wistar rats assessed as reduction in CaOx crystal formation in cumulative urine at 0.1 mg/kg, po administered via gavage in presence of sodium oxalate by Neubauer counting chamber method relative to control; assay type: functional; set-up: scale not given: the % may be the effect or the level left
[32] = tested on: Rattus norvegicus; assay: Diuretic activity in normotensive Wistar rat assessed as urine conductivity at 0.1 mg/kg, ip after 8 hrs (reference value: 24.87 +/- 0.54 mS/cm); assay type: functional
[33] = tested on: Rattus norvegicus; assay: Cardioprotective activity in spontaneous hypertensive Wistar rat assessed as effect on heart weight at 0.1 mg/kg, po administered for 7 days; assay type: functional, organism-based
[34] = Toxicity in spontaneous hypertensive Wistar rat assessed as changes in plasma nitrite acid level at 0.1 mg/kg, po administered for 7 days; assay type: organism-based; conditions: in vivo, 168 h
[35] = tested on: Rattus norvegicus; assay: Diuretic activity in normotensive Wistar rat assessed as urine conductivity at 0.1 mg/kg, po administered via gavage after 8 hrs in presence of atropine (reference value: 19.54 +/- 0.98 mS/cm); assay type: functional
[36] = Toxicity in normotensive Wistar rat assessed as changes in urea level in urine at 0.1 mg/kg, po administered for 7 days; assay type: organism-based; conditions: in vivo, 168 h

In the case of C[C@@H]1O[C@@H](Oc2c(-c3ccc(O)cc3)oc3cc(O)cc(O)c3c2=O)[C@H](O)[C@H](O)[C@H]1O [AFZELIN], the Activity [1] is reported as 107.4 mmol/L, the Activity [2] is reported as “Non-Toxic” and the Activity [3] is reported as 15.25 mS/cm. For the same compound, the Activity [4] was 74.67 mmol/L, the Activity [5] was 20.62 mS/cm and the Activity [6] was 48.88%. For the same compound, the Activity [7] was 40.93 mmol/L, the Activity [8] was “Non-Toxic” and the Activity [9] was 78.12 mmol/L. For the same compound, the Activity [10] was 161.1 mmol/L, the Activity [11] was 5.23 mg/dL and the Activity [12] was “Non-Toxic”. For the same compound, the Activity [13] was 16.83 mmol/L, the Activity [14] was “Active” and the Activity [15] was 75.54 mmol/L. The Activity [16] was “Non-Toxic”, the Activity [17] was 27.21% and the Activity [18] was “Active”. For the same compound, the Activity [19] was 336.1 mmol/L, the Activity [20] was 51.84 mmol/L and the Activity [21] was “Active”. For the same compound, the Activity [22] was 186.6 to 231.3 mmol/L, the Activity [23] was 5.6 mg/dL and the Activity [24] was “Active”. It also gave an Activity [25] of 4.74 mg/dL, a pH [26] of 5.89 and an Activity [27] of 19.83 mS/cm. For the same compound, the Activity [28] was “Active”, the Activity [29] was 231.8 mmol/L and the Activity [30] was 17.87 mmol/L. For the same compound, the Activity [31] was 41.3%, the Activity [32] was 24.35 mS/cm and the Activity [33] was “inactive”. The Activity [34] was “Non-Toxic”, the Activity [35] was 19.09 mS/cm and the Activity [36] was “Non-Toxic”.

From ChEMBL document CHEMBL4619763 (J Nat Prod, 2020)
